Assay results taken from ChEMBL document CHEMBL4819021, “Paratrimerins J-Y, Dimeric Coumarins Isolated from the Stems of Paramignya trimera” (J Nat Prod, 2021).
Activity calls are given as the source filed them.

How the values were obtained:
Type in all cases: functional, cell-based
HCC1428 = assay: Cytotoxicity against human HCC1428 cells assessed as reduction in cell viability at 40 uM measured after 72 hrs by MTS assay
T47D = assay: Cytotoxicity against human T47D cells assessed as reduction in cell viability at 40 uM measured after 72 hrs by MTS assay
BT-549 = assay: Cytotoxicity against human BT-549 cells assessed as reduction in cell viability at 40 uM measured after 72 hrs by MTS assay
KM12 = assay: Cytotoxicity against human KM12 cells assessed as reduction in cell viability at 40 uM measured after 72 hrs by MTS assay
Hs-578T = assay: Cytotoxicity against human Hs-578T cells assessed as reduction in cell viability at 40 uM measured after 72 hrs by MTS assay
RKO = assay: Cytotoxicity against human RKO cells assessed as reduction in cell viability at 40 uM measured after 72 hrs by MTS assay
HCC38 = assay: Cytotoxicity against human HCC38 cells assessed as reduction in cell viability at 40 uM measured after 72 hrs by MTS assay
HCT-8 = assay: Cytotoxicity against human HCT-8 cells assessed as reduction in cell viability at 40 uM measured after 72 hrs by MTS assay
SK-HEP1 = assay: Cytotoxicity against human SK-HEP1 cells assessed as reduction in cell viability at 40 uM measured after 72 hrs by MTS assay
SK-BR-3 = assay: Cytotoxicity against human SK-BR-3 cells assessed as reduction in cell viability at 40 uM measured after 72 hrs by MTS assay
SW480 = assay: Cytotoxicity against human SW480 cells assessed as reduction in cell viability at 40 uM measured after 72 hrs by MTS assay
MDA-MB-468 = assay: Cytotoxicity against human MDA-MB-468 cells assessed as reduction in cell viability at 40 uM measured after 72 hrs by MTS assay
MDA-MB-231 = assay: Cytotoxicity against human MDA-MB-231 cells assessed as reduction in cell viability at 40 uM measured after 72 hrs by MTS assay
MDA-MB-435 = assay: Cytotoxicity against human MDA-MB-435 cells assessed as reduction in cell viability at 40 uM measured after 72 hrs by MTS assay
COLO 205 = assay: Cytotoxicity against human COLO 205 cells assessed as reduction in cell viability at 40 uM measured after 72 hrs by MTS assay
HCT-116 = assay: Cytotoxicity against human HCT-116 cells assessed as reduction in cell viability at 40 uM measured after 72 hrs by MTS assay
SW-620 = assay: Cytotoxicity against human SW-620 cells assessed as reduction in cell viability at 40 uM measured after 72 hrs by MTS assay
HCC70 = assay: Cytotoxicity against human HCC70 cells assessed as reduction in cell viability at 40 uM measured after 72 hrs by MTS assay
MCF7 = assay: Cytotoxicity against human MCF7 cells assessed as reduction in cell viability at 40 uM measured after 72 hrs by MTS assay

Measured: Activity

CC1=C[C@H](c2cc3ccc(=O)oc3cc2O[C@@H]2O[C@H](CO)[C@@H](O)[C@H](O)[C@H]2O)[C@](C)(/C=C/c2cc3ccc(=O)oc3cc2O[C@@H]2O[C@H](COC3OC[C@@H](O)[C@H](O)[C@H]3O)[C@@H](O)[C@H](O)[C@H]2O)CC1 (stereo partly specified)
inactive: all assays above

CC1=C[C@@H](c2cc3ccc(=O)oc3cc2O[C@@H]2O[C@H](CO)[C@@H](O)[C@H](O)[C@H]2O)[C@@](C)(/C=C/c2cc3ccc(=O)oc3cc2O[C@@H]2O[C@H](COC3OC[C@@H](O)[C@H](O)[C@H]3O)[C@@H](O)[C@H](O)[C@H]2O)CC1 (stereo partly specified)
inactive: all assays above

CC1=C[C@@H](c2cc3ccc(=O)oc3cc2O[C@@H]2O[C@H](COC3OC[C@@H](O)[C@H](O)[C@H]3O)[C@@H](O)[C@H](O)[C@H]2O)[C@@](C)(/C=C/c2cc3ccc(=O)oc3cc2O[C@@H]2O[C@H](COC3OC[C@@H](O)[C@H](O)[C@H]3O)[C@@H](O)[C@H](O)[C@H]2O)CC1 (stereo partly specified)
inactive: all assays above

CC1=C[C@H](c2cc3ccc(=O)oc3cc2O[C@@H]2O[C@H](COC3OC[C@@H](O)[C@H](O)[C@H]3O)[C@@H](O)[C@H](O)[C@H]2O)[C@](C)(/C=C/c2cc3ccc(=O)oc3cc2O[C@@H]2O[C@H](CO)[C@@H](O)[C@H](O)[C@H]2O)CC1 (stereo partly specified)
inactive: all assays above

CC1=C[C@@H](c2cc3ccc(=O)oc3cc2O[C@@H]2O[C@H](CO)[C@@H](O)[C@H](O)[C@H]2O)[C@@](C)(/C=C/c2cc3ccc(=O)oc3cc2O[C@@H]2O[C@H](CO[C@@H]3OC[C@](O)(CO)[C@H]3O)[C@@H](O)[C@H](O)[C@H]2O)CC1
inactive: all assays above

CC1=C[C@@H](c2cc3ccc(=O)oc3cc2O[C@@H]2O[C@H](COC3OC[C@@H](O)[C@H](O)[C@H]3O)[C@@H](O)[C@H](O)[C@H]2O)[C@@](C)(/C=C/c2cc3ccc(=O)oc3cc2O[C@@H]2O[C@H](CO)[C@@H](O)[C@H](O)[C@H]2O)CC1 (stereo partly specified)
inactive: all assays above

CC1=C[C@H](c2cc3ccc(=O)oc3cc2O[C@@H]2O[C@H](CO[C@@H]3OC[C@](O)(CO)[C@H]3O)[C@@H](O)[C@H](O)[C@H]2O)[C@](C)(/C=C/c2cc3ccc(=O)oc3cc2O[C@@H]2O[C@H](CO)[C@@H](O)[C@H](O)[C@H]2O)CC1
inactive: all assays above

CC1=C[C@H](c2cc3ccc(=O)oc3cc2O[C@@H]2O[C@H](COC3OC[C@@H](O)[C@H](O)[C@H]3O)[C@@H](O)[C@H](O)[C@H]2O)[C@](C)(/C=C/c2cc3ccc(=O)oc3cc2O[C@@H]2O[C@H](COC3OC[C@@H](O)[C@H](O)[C@H]3O)[C@@H](O)[C@H](O)[C@H]2O)CC1 (stereo partly specified)
inactive: all assays above

CC1=C[C@@H](c2cc3ccc(=O)oc3cc2O[C@@H]2O[C@H](CO)[C@@H](O)[C@H](O)[C@H]2O)[C@@](C)(/C=C/c2cc3ccc(=O)oc3cc2O[C@@H]2O[C@H](CO)[C@@H](O)[C@H](O)[C@H]2O)CC1
inactive: all assays above
